This is an account of results in paper PMC9643456, “Matching amino acids membrane preference profile to improve activity of antimicrobial peptides” (Communications Biology, 2022).

≈ marks a conversion by molar mass, not a printed value. Where “and” joins values, the source holds several entries; their conditions need not be identical. Equal entries are not always repeated. Square brackets hold non-standard residues; d marks the D form. Ends that are not written are not given here. Peptide text beside a SMILES is read from it. A value given as a limit tells only on which side of the number the result lay.

For one data set, the system named is MDR P. aeruginosa. Put plainly: microbe, parasite or virus in culture. As to conditions: for MIC in 0.2% albumin and 0.01% AcOH added CLSI standard condition, MDR P. aeruginosa: CAMHB plus 0.2% bovine serum albumin and 0.01% acetic acid, values marked * in Table 2; for Minimum inhibitory concentrations, MDR P. aeruginosa: CLSI broth microdilution, CAMHB with 50 mg/L Ca2+, 10 mg/L Mg2+, 5 × 10^5 CFU/ml, 18 h 37 °C, no visible turbidity, triplicate, strain CCARM 2180. The method in brief: (§1)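 MIC was read by eye as the lowest peptide concentration leaving no visible turbidity. Peptide and mid-log cells (final 5 × 10^5 CFU/ml) were combined in cation-adjusted Mueller–Hinton broth containing 50 mg/L calcium and 10 mg/L magnesium and incubated 18 h at 37 °C.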

The subject of the next data set is MDR A. baumannii. Put plainly: microbe, parasite or virus in culture. As to conditions: for Minimum inhibitory concentrations, MDR A. baumannii: CLSI broth microdilution, CAMHB with 50 mg/L Ca2+, 10 mg/L Mg2+, 5 × 10^5 CFU/ml, 18 h 37 °C, triplicate, strain ATCC BAA-1605; for MIC in 0.2% albumin and 0.01% AcOH added CLSI standard condition, MDR A. baumannii: CAMHB plus 0.2% bovine serum albumin and 0.01% acetic acid, values marked * in Table 2. The essentials:
as §1
Background: In broth dilution the organism is exposed to a series of concentrations in liquid medium.

Another data set deals with MDR S. aureus. Put plainly: microbe, parasite or virus in culture. The note with it: for MIC in 0.2% albumin and 0.01% AcOH added CLSI standard condition, MDR S. aureus: CAMHB plus 0.2% bovine serum albumin and 0.01% acetic acid, values marked * in Table 2; for Minimum inhibitory concentrations, MDR S. aureus: CLSI broth microdilution, CAMHB with 50 mg/L Ca2+, 10 mg/L Mg2+, 5 × 10^5 CFU/ml, 18 h 37 °C, triplicate, strain KCCM 40510; for MIC at TM potential condition, S. aureus KCCM 40510: bacteria OD 0.1 (5 x 10^7 cfu/ml), CAMHB, 1% DMSO. The essentials: as §1

In another data set the test system is MDR E. faecalis. Put plainly: microbe, parasite or virus in culture. As to conditions: for MIC in 0.2% albumin and 0.01% AcOH added CLSI standard condition, MDR E. faecalis: CAMHB plus 0.2% bovine serum albumin and 0.01% acetic acid, values marked * in Table 2; for Minimum inhibitory concentrations, MDR E. faecalis: CLSI broth microdilution, CAMHB with 50 mg/L Ca2+, 10 mg/L Mg2+, 5 × 10^5 CFU/ml, 18 h 37 °C, triplicate, strain ATCC 51575. The method in brief: as §1

The nature of data set [1]: Maximum soluble concentration / turbidity. Type of data set: physicochemical. The note with it: for Maximum soluble concentration in PBS: lyophilized peptide reconstructed in PBS at 200-6.25 μM, visible turbidity checked every 12 h for 5 days, at least twice. As to the method:
Supplementary Methods Bacteria preparation, Antimicrobial peptides preparation, Minimal-inhibitory-concentration measurements, Hemolysis-activity measurements, Tryptophan fluorescence measurements, Isothermal titration calorimetry measurements, Bacteria membrane ion permeation measurements, Outer-inner membrane permeation, Field-emission scanning electron microscopy and Antimicrobial kinetics were performed as described in Materials and Methods. Liposome (LUV) preparation. Bacterial-membrane-mimic DMPC/DMPG unilamellar vesicles (LUV) and mammalian- membrane-mimic PC/cholesterol vesicles with 100-nm diameters were prepared by extrusion. LiposoFast Liposome Factory Basic unit with stabilizer (Avestin, Ottawa, Canada) was used to extrude liposomes 50 times through a polycarbonate membrane filter (pore diameter, 100 nm; filter diameter, 0.75 inches) (Avestin). […] rac-(1-glycerol)) (sodium salt) (DMPG) (Avanti, Alabama, USA); 1,2-Dimyristoyl-sn-glycero-3-phosphocholine (DMPC) (Avanti); and cholesterol (Sigma, Darmstadt, Germany) were used. For circular dichroism, isothermal titration calorimetry, tryptophan fluorescence, and dynamic light scattering experiments, liposomes were reconstructed and resuspendedwith phosphate-buffered saline (PBS; Welgene Inc, Gyeongsangbuk-do, Korea). For calcein-permeation tests, liposomes were reconstructed with calcein solutions (80 mM, 40 mM, 30 mM, 20 mM, and 10 mM) (Sigma, Darmstadt, Germany), purified with Sephadex-G50 columns (Pharmacia biotech, Stockholm, Sweden), and resuspended with PBS. Maximum-soluble -concentration measurements. […] turbidity with PBS. The lowest concentration of peptide without visible turbidity was determined to be the maximu m soluble concentration. Each experiment was performed at least twice. Circular dichroism (CD) spectrum. DMPC/PG -liposome, PC/cholesterol -liposome, and peptide stock solutions were diluted in PBS. For circular dichroism, PBS with neither liposome nor peptides was also prepared. Liposomes and peptides were mixed to […] Samples were transferred into type J/1 cuvettes (Jasco, Tokyo, Japan). Cuvettes were placed into the J -815 circular -dichroism spectrometer (Jasco, Tokyo, Japan). Measurement parameters were as follows: wavelength, 190 -260 nm; data pitch, 0.2 nm; bandwidth, 1.00 nm; […] Each experiment was performed in triplicate. Data below 197 nm was not analyzed because o f experimental difficulties in obtaining those spectra. Each experiment was performed at least twice. Artificial membrane calcein permeation measurements. Calcein fluorescence was used to measure peptide -induced liposome permeation. Calcein solutions (10 mM, 20 mM, or 60 mM) containing PC/PG liposomes and peptides were diluted in PBS ( ×1, ×2, ×3, ×8). […] Liposome solutions (180 μl) were transferred to wells of black, clear -bottomed 96 -well plates (Costar, New York, USA). Peptide […] Liposome-containing plates and peptide -containing plates were inserted into a Flexstation 3 Multi -Mode Microplate Reader (Molecular Devices, California, USA). Peptide solutions (20 μl) were transferred and mixed with liposome solution automatical ly after 30 sec. […] Measurement parameters were as follows: excitation, 490 nm; emission, 520 nm; temperature, 37 °C. […] was transferred and mixed with the liposome -peptide solu tions automatically after 300 sec to acquire fluorescence at maximum leakage. […] Fluorescence measured between 0 -300 sec after addition of 0 μg/ml peptide was considered the baseline. Each experiment was performed at least twice. Dynamic light scattering (DLS) measurements. Dynamic light scattering was used to measure peptide -induced liposome volume changes. PC/PG -liposome stock solutions and peptides were resuspended in PBS. Liposomes and peptides were mixed to […]

On to `CC[C@@H](C)[C@@H](NC(=O)[C@@H](Cc1c[nH]c2ccccc12)NC(=O)[C@H](NC(=O)[C@@H](CC(C)C)NC(=O)[C@H](N)Cc1c[nH]c2ccccc12)C(C)C)C(=O)N[C@H](Cc1c[nH]c2ccccc12)C(=O)N[C@H](CCCNC(=N)N)C(=O)N[C@H](CCCNC(=N)N)C(=O)N[C@H](CCCNC(=N)N)C(N)=O` [WCopW29] (H-[dW][dL][dV][dW][dI][dW][dR][dR][dR]-NH2), for which the “MIC at different cfu/ml, MDR P. aeruginosa” value against MDR P. aeruginosa (2 × 10^8 cfu/ml (x400)) amounted to 5 µM (≈ 6.85 µg/mL). In the data set with MDR P. aeruginosa (5 x 10^5 cfu/ml, PBS), the “MIC at killing kinetics condition, P. aeruginosa CCARM 2180” value came to 5 µM (≈ 6.85 µg/mL). The “MIC in 0.2% albumin and 0.01% AcOH added CLSI standard condition, MDR P. aeruginosa” value with MDR P. aeruginosa was 5 µM. Also, the “MIC at different cfu/ml, MDR A. baumannii” value in the data set on MDR A. baumannii (1 × 10^10 cfu/ml (x2000)) is 10 µM (≈ 13.7 µg/mL). Moreover, the “MIC at different cfu/ml, MDR A. baumannii” value with MDR A. baumannii (2 × 10^8 cfu/ml (x400)) stood at 2.5 µM (≈ 3.42 µg/mL). Also, in the data set on MDR A. baumannii (5 x 10^5 cfu/ml, PBS), the “MIC at killing kinetics condition, A. baumannii ATCC BAA 1605” value was 0.63 µM (≈ 0.863 µg/mL). The “MIC at different cfu/ml, MDR S. aureus” value with MDR S. aureus (1 × 10^10 cfu/ml (x2000)) was 5 µM (≈ 6.85 µg/mL). Also, in the data set on MDR S. aureus (2 × 10^8 cfu/ml (x400)), the “MIC at different cfu/ml, MDR S. aureus” value was 2.5 µM (≈ 3.42 µg/mL). Besides, the “MIC at killing kinetics condition, S. aureus KCCM 40510” value against MDR S. aureus (5 x 10^5 cfu/ml, PBS) came to 1.25 µM (≈ 1.71 µg/mL). In the data set on MDR S. aureus, the “MIC in 0.2% albumin and 0.01% AcOH added CLSI standard condition, MDR S. aureus” value is 0.31 µM; the “Minimum inhibitory concentrations, MDR S. aureus” value came to 1.25 µM (≈ 1.71 µg/mL); the “Increase of MIC when the S. aureus concentration was increased 200-fold” value is on record as “twofold”; the “MIC at TM potential condition, S. aureus KCCM 40510” value came out at 2 µM (≈ 2.74 µg/mL). In addition, the “MIC at different cfu/ml, MDR E. faecalis” value against MDR E. faecalis (2 × 10^8 cfu/ml (x400)) was 2.5 µM (≈ 3.42 µg/mL). The “MIC at killing kinetics condition, E. faecalis ATCC 51575” value in the data set with MDR E. faecalis (5 x 10^5 cfu/ml, PBS) was 1.25 µM (≈ 1.71 µg/mL). In addition, in the data set with MDR E. faecalis, the “MIC in 0.2% albumin and 0.01% AcOH added CLSI standard condition, MDR E. faecalis” value was 0.31 µM; the “Minimum inhibitory concentrations, MDR E. faecalis” value was 1.25 µM (≈ 1.71 µg/mL). Also, the “Maximum soluble concentration in PBS” value in data set [1] was over 200 µM.
`CC[C@@H](C)[C@@H](NC(=O)[C@@H](Cc1c[nH]c2ccccc12)NC(=O)[C@@H](CCCNC(=N)N)NC(=O)[C@@H](CCCNC(=N)N)NC(=O)[C@H](N)CCCNC(=N)N)C(=O)N[C@H](Cc1c[nH]c2ccccc12)C(=O)N[C@@H](C(=O)N[C@@H](C(=O)N[C@H](Cc1c[nH]c2ccccc12)C(=O)N[C@H](CCCCN)C(N)=O)[C@H](C)CC)C(C)C` [WCopW43] (H-[dR][dR][dR][dW][dI][dW][dV][dI][dW][dK]-NH2): in the data set on MDR P. aeruginosa, the “Minimum inhibitory concentrations, MDR P. aeruginosa” value turned out to be 1.25 µM (≈ 1.87 µg/mL). In addition, the “Minimum inhibitory concentrations, MDR A. baumannii” value in the data set on MDR A. baumannii is 0.63 µM (≈ 0.944 µg/mL). Besides, in the data set with MDR S. aureus, the “Minimum inhibitory concentrations, MDR S. aureus” value stood at 0.63 µM (≈ 0.944 µg/mL). In addition, the “Turbidity in PBS” value in data set [1] (10 mg/ml peptide in PBS) is “turbid”.
Colistin: in the data set on MDR P. aeruginosa, the “MIC in 0.2% albumin and 0.01% AcOH added CLSI standard condition, MDR P. aeruginosa” value is at most 0.15 µM; the “Minimum inhibitory concentrations, MDR P. aeruginosa” value is 1.25 µM and 0.63 µM. Also, in the data set with MDR A. baumannii, the “MIC in 0.2% albumin and 0.01% AcOH added CLSI standard condition, MDR A. baumannii” value is at most 0.15 µM.
Regarding RLWWRWIVR-NH2 [HLWCopW29-4], in the data set with MDR P. aeruginosa, the “MIC in 0.2% albumin and 0.01% AcOH added CLSI standard condition, MDR P. aeruginosa” value was over 20 µM; the “Minimum inhibitory concentrations, MDR P. aeruginosa” value was over 20 µM. Moreover, the “MIC in 0.2% albumin and 0.01% AcOH added CLSI standard condition, MDR A. baumannii” value with MDR A. baumannii stood at 20 µM. For the same compound, in the data set on MDR S. aureus, the “MIC in 0.2% albumin and 0.01% AcOH added CLSI standard condition, MDR S. aureus” value came out at 20 µM; the “MIC at TM potential condition, S. aureus KCCM 40510” value is over 20 µM. In addition, the “MIC in 0.2% albumin and 0.01% AcOH added CLSI standard condition, MDR E. faecalis” value in the data set on MDR E. faecalis was 20 µM. Besides, the “Maximum soluble concentration in PBS” value in data set [1] is over 200 µM.
For the compound WLVWIWRRR-NH2 [LWCopW29], in the data set on MDR P. aeruginosa, the “MIC in 0.2% albumin and 0.01% AcOH added CLSI standard condition, MDR P. aeruginosa” value came out at 20 µM; the “Minimum inhibitory concentrations, MDR P. aeruginosa” value is over 20 µM. In addition, in the data set with MDR A. baumannii, the “MIC in 0.2% albumin and 0.01% AcOH added CLSI standard condition, MDR A. baumannii” value was 0.31 µM; the “Minimum inhibitory concentrations, MDR A. baumannii” value was determined as 1.25 µM. Also, in the data set with MDR S. aureus, the “MIC in 0.2% albumin and 0.01% AcOH added CLSI standard condition, MDR S. aureus” value turned out to be 1.25 µM; the “Minimum inhibitory concentrations, MDR S. aureus” value was determined as 5 µM; the “Increase of MIC when the S. aureus concentration was increased 200-fold” value is reported as “twofold”. For the same compound, in the data set with MDR E. faecalis, the “MIC in 0.2% albumin and 0.01% AcOH added CLSI standard condition, MDR E. faecalis” value was determined as 1.25 µM; the “Minimum inhibitory concentrations, MDR E. faecalis” value turned out to be 5 µM. For the same compound, the “Maximum soluble concentration in PBS” value in data set [1] is over 200 µM.
